Measured values published in US7977346B2, “Spiro compounds and methods of use” (priority 2006, dated 2011).

Assays:
colon LOVO cell line = experiment: MTT assay against colon LOVO cell line; assay type: cell-based, human
Description: (§1) The following in vitro results are activities of some compounds in present invention against human tumor NSCLC A549 cell line and colon LOVO cell line in MTT assay.

[1] = test system: human tumor NSCLC A549 cell line; experiment: MTT assay against human tumor NSCLC A549 cell line; assay type: cell-based
Description: as §1

IC50 (colon LOVO cell line) [pM]	IC50 [1] [pM]	Compound
32.9	35.9	COc1cc2ncnc(Nc3ccc(F)c(Cl)c3)c2cc1OCCCN1CC(=O)C2(CC2)C1 [Example 22, N-(3-chloro-4-fluorophenyl)-7-methoxy-6-[3-(5-azaspiro[2.4]heptan-7-one)propoxy]quinazolin-4-amine]
171	34	COc1cc2ncnc(Nc3ccc(F)c(Cl)c3)c2cc1OCCCN1CC2(CC2)C2(C1)OCCS2 (centres unmarked) [Example 34, N-(3-chloro-4-fluorophenyl)-7-methoxy-6-[3-(5,8-Oxathiolane-10-azadispiro[2.0.4.3]undecane)propoxy]quinazolin-4-amine]
37.5	61.9	COc1cc2ncnc(Nc3ccc(F)c(Cl)c3)c2cc1OCCCN1CC2(CC2)C2(C1)OCCO2 [Example 20, N-(3-chloro-4-fluorophenyl)-7-methoxy-6-[3-(5,8-Dioxa-10-azadispiro[2.0.4.3]undecane)propoxy]quinazolin-4-amine]
95.4	57.3	COc1cc2ncnc(Nc3ccc(F)c(Cl)c3)c2cc1OCCN1CC(O)C2(CC2)C1 (centres unmarked) [Example 25, N-(3-chloro-4-fluorophenyl)-7-methoxy-6-[2-(5-azaspiro[2.4]heptan-7-ol)ethoxy]quinazolin-4-amine]
129	75	COc1cc2ncnc(Nc3ccc(F)c(Cl)c3)c2cc1OCCCN1CC2(CC2)C2(C1)OCC(C)(C)CO2 [Example 41, N-(3-chloro-4-fluorophenyl)-7-methoxy-6-[3-(5,9-Dioxa-7,7-dimethyl-11-azadispiro[2.0.4.3]dodecane)propoxy]quinazolin-4-amine]
93.4	104	C#Cc1cccc(Nc2ncnc3cc(OC)c(OCCN4CC(=O)C5(CC5)C4)cc23)c1 [Example 29, N-(3-ethynylphenyl)-7-methoxy-6-[2-(5-azaspiro[2.4]heptan-7-one)ethoxy]quinazolin-4-amine]
165	37.5	COc1cc2ncnc(Nc3ccc(F)c(Cl)c3)c2cc1OCCCN1CC(O)C2(CC2)C1 (centres unmarked) [Example 24, N-(3-chloro-4-fluorophenyl)-7-methoxy-6-[3-(5-azaspiro[2.4]heptan-7-ol)propoxy]quinazolin-4-amine]

Continued, compound first:

Compound	IC50 (colon LOVO cell line) [pM]	IC50 [1] [pM]
COc1cc2ncnc(Nc3cccc(Br)c3)c2cc1OCCN1CC2(CC2)C2(C1)OCCO2 [Example 32, N-(3-bromophenyl)-7-methoxy-6-[2-(5,8-Dioxa-10-azadispiro[2.0.4.3]undecane)ethoxy]quinazolin-4-amine]	32	28
COc1cc2ncnc(Nc3ccc(F)c(Cl)c3)c2cc1OCCN1CC2(CC2)C2(C1)OCCCO2 [Example 38, N-(3-chloro-4-fluorophenyl)-7-methoxy-6-[2-(5,9-Dioxa-11-azadispiro[2.0.4.3]dodecane)ethoxy]quinazolin-4-amine]	143	73
COc1cc2ncnc(Nc3ccc(F)c(Cl)c3)c2cc1OCCN1CC2(CC2)C2(C1)OCCS2 (centres unmarked) [Example 37, N-(3-chloro-4-fluorophenyl)-7-methoxy-6-[2-(5,8-Oxathiolane-10-azadispiro[2.0.4.3]undecane)ethoxy]quinazolin-4-amine]	55.3	132
COc1cc2ncnc(Nc3ccc(F)c(Cl)c3)c2cc1OCCN1CC2(CC2)C2(C1)OCC(C)(C)CO2 [Example 39, N-(3-chloro-4-fluorophenyl)-7-methoxy-6-[2-(5,9-Dioxa-7,7-dimethyl-11-azadispiro[2.0.4.3]dodecane)ethoxy]quinazolin-4-amine]	30	23
C#Cc1cccc(Nc2ncnc3cc(OC)c(OCCN4CC(O)C5(CC5)C4)cc23)c1 (centres unmarked) [Example 30, N-(3-ethynylphenyl)-7-methoxy-6-[2-(5-azaspiro[2.4]heptan-7-ol)ethoxy]quinazolin-4-amine]	27.2	74.9
COc1cc2ncnc(Nc3ccc(Cl)c(Cl)c3)c2cc1OCCN1CC2(CC2)C2(C1)OCCO2 [Example 33, N-(3,4-dichlorophenyl)-7-methoxy-6-[2-(5,8-Dioxa-10-azadispiro[2.0.4.3]undecane)ethoxy]quinazolin-4-amine]	118	51.9
COc1cc2ncnc(Nc3cccc(C(F)(F)F)c3)c2cc1OCCN1CC2(CC2)C2(C1)OCCO2 [Example 31, N-(3-trifluoromethylphenyl)-7-methoxy-6-[2-(5,8-Dioxa-10-azadispiro[2.0.4.3]undecane)ethoxy]quinazolin-4-amine]	98	54.6
COc1cc2c(Nc3ccc(Br)cc3F)ncnc2cc1OCCCN1CC2(CC2)C2(C1)OCCO2 [Example 35, N-(2-fluoro-4-bromophenyl)-6-methoxy-7-[3-(5,8-Dioxa-10-azadispiro[2.0.4.3]undecane)propoxy]quinazolin-4-amine]	31.8	40.2
COc1cc2ncnc(Nc3ccc(F)c(Cl)c3)c2cc1OCCN1CC(=O)C2(CC2)C1 [Example 23, N-(3-chloro-4-fluorophenyl)-7-methoxy-6-[2-(5-azaspiro[2.4]heptan-7-one)ethoxy]quinazolin-4-amine]	219	89.3
COc1cc2ncnc(Nc3ccc(F)c(Cl)c3)c2cc1OCCN1CC(OC)C2(CC2)C1 (centres unmarked) [Example 27, N-(3-chloro-4-fluorophenyl)-7-methoxy-6-[2-(7-methoxy-5-azaspiro[2.4]heptane)ethoxy]quinazolin-4-amine]	97.8	212
C#Cc1cccc(Nc2ncnc3cc(OC)c(OCCN4CC5(CC5)C5(C4)OCCO5)cc23)c1 [Example 28, N-(3-ethynylphenyl)-7-methoxy-6-[2-(5,8-Dioxa-10-azadispiro[2.0.4.3]undecane)ethoxy]quinazolin-4-amine]	37.6	96
COc1cc2ncnc(Nc3ccc(F)c(Cl)c3)c2cc1OCCCN1CC(OC)C2(CC2)C1 (centres unmarked) [Example 26, N-(3-chloro-4-fluorophenyl)-7-methoxy-6-[3-(7-methoxy-5-azaspiro[2.4]heptane)propoxy]quinazolin-4-amine]	37.6	91
COc1cc2c(Nc3ccc(Br)cc3F)ncnc2cc1OCCN1CC2(CC2)C2(C1)OCCO2 [Example 36, N-(2-fluoro-4-bromophenyl)-6-methoxy-7-[2-(5,8-Dioxa-10-azadispiro[2.0.4.3]undecane)ethoxy]quinazolin-4-amine]	57	22
COc1cc2ncnc(Nc3ccc(F)c(Cl)c3)c2cc1OCCN1CC2(CC2)C2(C1)OCCO2 [Example 21, N-(3-chloro-4-fluorophenyl)-7-methoxy-6-[2-(5,8-Dioxa-10-azadispiro[2.0.4.3]undecane)ethoxy]quinazolin-4-amine]	139	42.1
N-(3-chloro-4-fluorophenyl)-7-methoxy-6-[3-(5,9-Dioxa-11-azadispiro[2.0.4.3]dodecane)propoxy]quinazolin-4-amine [Example 40]	29	42
